Target: T1, Aβ40 (Homo sapiens, UniProt P05067)
T1 construct: pre-treated Aβ40 (40 μM in 20 mM Tris, pH 7.4)
Assay: Thioflavin T (ThT) Aβ aggregation assay
Assay type: biochemical
Conditions: 20 μM Aβ40, 37 degrees C
Experimental: Aβ40 (1.0 mg) was pre-treated in a 1.5 mL microfuge tube with HFIP (1 mL) and sonicated for 20 min to disassemble any pre-formed Aβ aggregates. The HFIP was removed with a stream of argon and the Aβ dissolved in Tris base (5.8 mL, 20 mM, pH ˜10). The pH was adjusted to 7.4 with concentrated HCl (−10 μL) and the solution filtered using a syringe filter (0.2 μm) before being used.
The kinetic ThT assay for Aβ aggregation is similar to that of Chalifour et al (Chalifour et al, 2003, J. Biol. Chem. 278:34874-81). Briefly, pre-treated Aβ40 (40 μM in 20 mM Tris, pH 7.4), was diluted with an equal volume of 8 μM ThT in Tris (20 mM, pH 7.4, 300 mM NaCl). Aliquots of Aβ/ThT (200 μL) were added to wells of a black polystyrene 96-well plate, followed by 2 μL of a compound in DMSO (variable concentration), or DMSO alone (controls). Incubations were performed in triplicate and were taken to contain 20 μM Aβ, various concentration of compound in 20 mM Tris, pH 7.4, 150 mM NaCl, 1% DMSO. Plates were covered with clear polystyrene lids and incubated at 37 degrees C. in a Tecan Genios microplate reader. Fluorescence readings (λex=450 nm, λem=480 nm) were taken every 15 min., after first shaking at high intensity for 15 s and allowing to settle for 10 s before each reading. Active compounds attenuated the increase in fluorescence over time that occurred in controls.

T1 sequence (P05067 672-711 limits assumed): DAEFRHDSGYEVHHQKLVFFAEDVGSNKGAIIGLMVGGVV

IC50 [µM]	Compound
> 50	O=C(c1ccccc1)N1CCN(c2ccc(OC(F)F)c(NCc3ccccc3)c2)CC1 [TRV 1184, (4-(3-(benzyl amino)-4-(difluoromethoxy)phenyl)piperazin-1-yl)(phenyl)methanone]
27.8 ± 27.6	O=C(C1CCCN(c2ccc([N+](=O)[O-])c(NCc3ccccc3)c2)C1)N1CCCC1 (centres unmarked) [TRV 1131, (1-(3-(benzylamino)-4-nitrophenyl)piperidin-3-yl)(pyrrolidin-1-yl)methanone]
> 50	N#Cc1ccc(N2CCN(C(=O)c3ccccc3)CC2)cc1N1CCCC1 [TRV 1167, 4-(4-benzoylpiperazin-1-yl)-2-(pyrrolidin-1-yl)benzonitrile]
> 50	O=C(c1ccccc1)N1CCN(c2cc(F)cc(N3CCCC3)c2)CC1 [TRV 1170, (4-(3-fluoro-5-(pyrrolidin-1-yl)phenyl)piperazin-1-yl)(phenyl)methanone]
> 50	O=C(c1ccccc1)N1CCN(c2cc(F)c(F)c(N3CCCC3)c2)CC1 [TRV 1156, (4-(3,4-difluoro-5-(pyrrolidin-1-yl)phenyl)piperazin-1-yl)(phenyl)methanone]
> 50	CC(C)Nc1cc(N2CCN(C(=O)c3ccccc3)CC2)ccc1C(F)(F)F [TRV 1166, (4-(3-(isopropylamino)-4-(trifluoromethyl)phenyl)piperazin-1-yl)(phenyl)methanone]
> 50	CC(C)Nc1cc(N2CCN(C(=O)c3ccccc3)CC2)ccc1C#N [TRV 1168, 4-(4-benzoylpiperazin-1-yl)-2-(isopropylamino)benzonitrile]
6.12 ± 2.78	CC1CN(c2ccc([N+](=O)[O-])c(Nc3ccccc3)c2)CCN1C(=O)c1ccccc1 (centres unmarked) [TRV 1099, (2-methyl-4-(4-nitro-3-(phenylamino)phenyl)piperazin-1-yl)(phenyl)methanone]
16.9 ± 0.52	CC(C)N(C)c1cc(N2CCN(C(=O)c3ccccc3)CC2)ccc1[N+](=O)[O-] [TRV 1152, (4-(3-(isopropyl(methyl)amino)-4-nitrophenyl)piperazin-1-yl)(phenyl)methanone]
> 50	O=C(c1ccccc1)N1CCN(c2cc(F)c(C(F)(F)F)c(N3CCCC3)c2)CC1 [TRV 1175, (4-(3-fluoro-5-(pyrrolidin-1-yl)-4-(trifluoromethyl)phenyl)piperazin-1-yl)(phenyl)methanone]
31.6 ± 4.8	O=C(c1ccccc1)N1CCN(c2ccc(Cl)c(Nc3ccccc3)c2)CC1 [TRV 1094, (4-(4-chloro-3-(phenylamino)phenyl)piperazin-1-yl)(phenyl)methanone]
> 10	CC(C)Nc1cc(N2CCN(C(=O)c3ccccc3)CC2)ccc1[N+](=O)[O-] [TRV 1144, (4-(3-(isopropylamino)-4-nitrophenyl)piperazin-1-yl)(phenyl)methanone]
~50	CC(O)c1cccc(-c2ccc(OC(F)F)c(NCc3ccccc3)c2)c1 (centres unmarked) [TRV 1192, 1-(3′-(benzylamino)-4′-(difluoromethoxy)biphenyl-3-yl)ethanol]
11.5 ± 0.29	CN(C)C(=O)C1CCCN(c2ccc([N+](=O)[O-])c(NCc3ccccc3)c2)C1 (centres unmarked) [TRV 1132, 1-(3-(benzylamino)-4-nitrophenyl)-N,N-dimethylpiperidine-3-carboxamide]
> 50	CC(C)Nc1cc(N2CCN(C(=O)c3ccccc3)CC2)ccc1F [TRV 1160, (4-(4-fluoro-3-(isopropylamino)phenyl)piperazin-1-yl)(phenyl)methanone]
~10	O=C(c1ccccc1)N1CCN(c2ccc([N+](=O)[O-])c(N3CCC(N4CCCC4)CC3)c2)CC1 [TRV 1139, (4-(4-nitro-3-(4-(pyrrolidin-1-yl)piperidin-1-yl)phenyl)piperazin-1-yl)(phenyl)methanone]

IC50 [µM]	Compound
> 50	CC(C)Nc1cc(F)cc(N2CCN(C(=O)c3ccccc3)CC2)c1 [TRV 1179, (4-(3-fluoro-5-(isopropylamino)phenyl)piperazin-1-yl)(phenyl)methanone]
> 10	CN1CCN(c2cc(N3CCN(C(=O)c4ccccc4)CC3)ccc2[N+](=O)[O-])CC1 [TRV 1146, (4-(3-(4-methylpiperazin-1-yl)-4-nitrophenyl)piperazin-1-yl)(phenyl)methanone]
10.5 ± 0.75	NC(=O)c1cccc(-c2ccc([N+](=O)[O-])c(NCc3ccccc3)c2)c1 [TRV 1103, 3′-(benzylamino)-4′-nitrobiphenyl-3-carboxamide]
6.65 ± 1.97	O=[N+]([O-])c1ccc(-c2cccc(C(O)C(F)(F)F)c2)cc1N1CCCC1 (centres unmarked) [TRV 1155, 2,2,2-trifluoro-1-(4′-nitro-3′-(pyrrolidin-1-yl)-[1,1′-biphenyl]-3-yl)ethanol]
> 50	CCNC(=O)c1cccc(-c2ccc([N+](=O)[O-])c(NCc3ccccc3)c2)c1 [TRV 1116, 3′-(benzylamino)-N-ethyl-4′-nitrobiphenyl-3-carboxamide]
3.99 ± 3.77	CC1CN(c2ccc([N+](=O)[O-])c(Nc3ccccc3)c2)CC(C)N1C(=O)c1ccccc1 (centres unmarked) [TRV 1098, (2,6-dimethyl-4-(4-nitro-3-(phenyl amino)phenyl)piperazin-1-yl)(phenyl)methanone]
11.6 ± 1.24	CN(c1cc(N2CCN(C(=O)c3ccccc3)CC2)ccc1[N+](=O)[O-])C1CCC1 [TRV 1154, (4-(3-(cyclobutyl(methyl)amino)-4-nitrophenyl)piperazin-1-yl)(phenyl)methanone]
> 50	N#Cc1ccc(-c2cccc(C(=O)O)c2)cc1NCc1ccccc1 [TRV 1128, 3′-(benzylamino)-4′-cyanobiphenyl-3-carboxylic acid]
> 50	O=C(c1ccccc1)N1CCN(c2cc(N3CCCC3)cc(C(F)(F)F)c2)CC1 [TRV 1163, phenyl(4-(3-(pyrrolidin-1-yl)-5-(trifluoromethyl)phenyl)piperazin-1-yl)methanone]
> 50	CC(C)Nc1ccc(N2CCN(C(=O)c3ccccc3)CC2)cc1N1CCCC1 [TRV 1157, (4-(4-(isopropyl amino)-3-(pyrrolidin-1-yl)phenyl)piperazin-1-yl)(phenyl)methanone]
> 50	O=C(c1ccccc1)N1CCN(c2ccc(OC(F)(F)F)c(NCc3ccccc3)c2)CC1 [TRV 1185, (4-(3-(benzylamino)-4-(trifluoromethoxy)phenyl)piperazin-1-yl)(phenyl)methanone]
~10	O=C(c1ccccc1)N1CCN(c2ccc([N+](=O)[O-])c(N3CCCCC3)c2)CC1 [TRV 1137, (4-(4-nitro-3-(piperidin-1-yl)phenyl)piperazin-1-yl)(phenyl)methanone]
> 50	O=C(c1ccccc1)N1CCN(c2ccc(F)c(NCc3ccccc3)c2)CC1 [TRV 1159, (4-(3-(benzylamino)-4-fluorophenyl)piperazin-1-yl)(phenyl)methanone]
> 10	O=C(c1ccccc1)N1CCN(c2ccc([N+](=O)[O-])c(NC3CCC3)c2)CC1 [TRV 1149, (4-(3-(cyclobutylamino)-4-nitrophenyl)piperazin-1-yl)(phenyl)methanone]
12.4 ± 0.62	CCN(CC)c1cc(N2CCN(C(=O)c3ccccc3)CC2)ccc1[N+](=O)[O-] [TRV 1135, (4-(3-(diethylamino)-4-nitrophenyl)piperazin-1-yl)(phenyl)methanone]
> 50	CC(=O)N1CCN(C(=O)c2cccc(-c3ccc([N+](=O)[O-])c(NCc4ccccc4)c3)c2)CC1 [TRV 1114, 1-(4-(3′-(benzylamino)-4′-nitrobiphenylcarbonyl)piperazin-1-yl)ethanone]

From patent US20140187556A1, “ANTI-AMYLOID COMPOUNDS AND METHODS” (Treventis Corporation, priority 2011, published 2014)
